Test results from EP0233206B1, “SUGAR-[…] THEIR PHARMACEUTICAL USE” (priority 1985, dated 1987).

How the values were obtained:
[1] = test system: mäusepathogenen Influenza-Viren; type: in vivo, NMRI-Mäusen; conditions: 20 NMRI mice, 500 µg each injected in 1 % Squalan-in-Wasser-Lösung, all saline controls died
immunkompetenten Zellen = assay: Activity of immunocompetent cells of the treated animals; type: in vivo, NMRI-Mäusen; conditions: cells of the animals treated with 500 µg substance in 1 % Squalan-in-Wasser-Lösung

With `COC(=O)CC[C@@H](NC(=O)CNC(=O)CO[C@@H]1[C@H]2OC(C)(C)O[C@H]2O[C@@H]1[C@H]1COC(C)(C)O1)C(=O)OC` [Beispiel 1, N-[ (1,2:5,6-Di-0-isopropyliden-α-D-glucofuranos-30-yl)-acetyl]-glycyl-D-glutaminsäure-dimethylester] the “überlebten (Tiere)” value [1] was 80% and the “Aktivität der immunkompetenten Zellen” value (immunkompetenten Zellen) was “erhöhte Aktivität”.
